The experiment deals with BDF1 mice, L1210 leukemia sc, survival T/C. Kind of experiment: NCI In Vivo Anticancer Drug Screen. Data for tumor model L1210 Leukemia (subcutaneous) in B6D2F1 (BDF1) mice. The following applies: higher = longer survival. Summed up: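 Read-out: T/C ratio, i.e. survival or tumor size in treated mice over that in vehicle-treated controls, from mice bearing transplantable tumors.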

Where “and” joins values, the source holds several entries; their conditions need not be identical. Equal values may be shown once. Inconclusive results and toxic doses are left out.

As for `CN(Cc1cnc2nc(N)nc(N)c2n1)c1cccc(C(=O)NC(CCC(=O)O)C(=O)O)c1` (configuration not stated), the T/C is 111 % of control (endpoint: mean survival time, dose: 1.0 mg/kg/injection, schedule: Q01DX009 (ip), vehicle: sodium bicarbonate); 107 % of control (endpoint: mean survival time, dose: 2.0 mg/kg/injection, schedule: Q01DX009 (ip), vehicle: sodium bicarbonate); 111 % of control (endpoint: mean survival time, dose: 4.0 mg/kg/injection, schedule: Q01DX009 (ip), vehicle: sodium bicarbonate); 113 % of control (endpoint: mean survival time, dose: 4.0 mg/kg/injection, schedule: Q04DX003 (ip), vehicle: sodium bicarbonate); 111 % of control (endpoint: mean survival time, dose: 8.0 mg/kg/injection, schedule: Q01DX009 (ip), vehicle: sodium bicarbonate); 111 % of control (endpoint: mean survival time, dose: 8.0 mg/kg/injection, schedule: Q04DX003 (ip), vehicle: sodium bicarbonate). Besides, the T/C reads like this: (endpoint: mean survival time, dose: 16.0 mg/kg/injection, schedule: Q01DX009 (ip), vehicle: sodium bicarbonate) 114 % of control; (endpoint: mean survival time, dose: 16.0 mg/kg/injection, schedule: Q04DX003 (ip), vehicle: sodium bicarbonate) 108 % of control; (endpoint: mean survival time, dose: 32.0 mg/kg/injection, schedule: Q04DX003 (ip), vehicle: sodium bicarbonate) 108 % of control; (endpoint: mean survival time, dose: 64.0 mg/kg/injection, schedule: Q04DX003 (ip), vehicle: sodium bicarbonate) 119 % of control.

As to `ClCCn1c2ccccc2c2ccccc21`, the T/C runs as follows: (endpoint: median survival time, dose: 5.0 mg/kg/injection, schedule: Q01DX Z (sc), vehicle: methylcellulose (MC)) 100 % of control; (endpoint: median survival time, dose: 8.4 mg/kg/injection, schedule: Q01DX Z (sc), vehicle: methylcellulose (MC)) 100 % of control; (endpoint: median survival time, dose: 14.0 mg/kg/injection, schedule: Q01DX Z (sc), vehicle: methylcellulose (MC)) 100 % of control; (endpoint: median survival time, dose: 23.0 mg/kg/injection, schedule: Q01DX Z (sc), vehicle: methylcellulose (MC)) 100 % of control; (endpoint: median survival time, dose: 39.0 mg/kg/injection, schedule: Q01DX Z (sc), vehicle: methylcellulose (MC)) 100 % of control; (endpoint: median survival time, dose: 65.0 mg/kg/injection, schedule: Q01DX Z (sc), vehicle: methylcellulose (MC)) 100 % of control. Besides, for the setting “endpoint: median survival time, dose: 108.0 mg/kg/injection, schedule: Q01DX Z (sc), vehicle: methylcellulose (MC)”, the T/C is 100 % of control.

In the case of `[I][Hg][CH2]C1COC([CH2][Hg][I])CO1` (configuration not stated), the T/C runs as follows: (endpoint: median survival time, dose: 14.0 mg/kg/injection, schedule: Q01DX Z (sc), vehicle: other) 100 % of control; (endpoint: median survival time, dose: 23.0 mg/kg/injection, schedule: Q01DX Z (sc), vehicle: other) 100 % of control; (endpoint: median survival time, dose: 39.0 mg/kg/injection, schedule: Q01DX Z (sc), vehicle: other) 105 % of control; (endpoint: median survival time, dose: 65.0 mg/kg/injection, schedule: Q01DX Z (sc), vehicle: other) 100 % of control; (endpoint: median survival time, dose: 108.0 mg/kg/injection, schedule: Q01DX Z (sc), vehicle: other) 111 % of control.

In the case of `Cc1cccc2c(Nc3ccc(NS(C)(=O)=O)cc3)c3ccc([N+](=O)[O-])cc3nc12`, the T/C (endpoint: mean survival time, dose: 10.0 mg/kg/injection, schedule: Q01DX009 (ip), vehicle: saline) was 158 % of control.

Take `CCC(=O)NC1=C(N2CC2)C(=O)C(NC(=O)CC)=C(N2CC2)C1=O`: the T/C runs as follows: (endpoint: median survival time, dose: 1.08 mg/kg/injection, schedule: Q01DX Z (sc), vehicle: methylcellulose (MC)) 110 % of control; (endpoint: median survival time, dose: 1.8 mg/kg/injection, schedule: Q01DX Z (sc), vehicle: methylcellulose (MC)) 110 % of control.

`CN(C)/N=N/c1nc[nH]c1C(N)=O`: the T/C runs as follows: (endpoint: mean survival time, dose: 39.0 mg/kg/injection, schedule: Q01DX009 (sc), vehicle: steriod suspending solution) 117 % of control; (endpoint: mean survival time, dose: 65.0 mg/kg/injection, schedule: Q01DX009 (sc), vehicle: steriod suspending solution) 115 % of control; (endpoint: mean survival time, dose: 300.0 mg/kg/injection, schedule: Q01DX009 (sc), vehicle: steriod suspending solution) 158 % of control; (endpoint: median survival time, dose: 39.0 mg/kg/injection, schedule: Q01DX009 (sc), vehicle: steriod suspending solution) 110 % of control and 116 % of control; (endpoint: median survival time, dose: 39.0 mg/kg/injection, schedule: Q01DX013 (sc), vehicle: steriod suspending solution) 110 % of control and 111 % of control; (endpoint: median survival time, dose: 39.0 mg/kg/injection, schedule: Q01DX Z (sc), vehicle: steriod suspending solution) 110 % of control and 116 % of control. Moreover, the T/C is, setting by setting: (endpoint: median survival time, dose: 65.0 mg/kg/injection, schedule: Q01DX009 (sc), vehicle: other) 111 % of control; (endpoint: median survival time, dose: 65.0 mg/kg/injection, schedule: Q01DX009 (sc), vehicle: steriod suspending solution) 110 % of control and 118 % of control and 121 % of control; (endpoint: median survival time, dose: 65.0 mg/kg/injection, schedule: Q01DX013 (sc), vehicle: other) 113 % of control; (endpoint: median survival time, dose: 65.0 mg/kg/injection, schedule: Q01DX013 (sc), vehicle: steriod suspending solution) 111 % of control and 113 % of control and 115 % of control; (endpoint: median survival time, dose: 65.0 mg/kg/injection, schedule: Q01DX017 (oral), vehicle: steriod suspending solution) 124 % of control; (endpoint: median survival time, dose: 65.0 mg/kg/injection, schedule: Q01DX Z (sc), vehicle: steriod suspending solution) 121 % of control and 122 % of control. Further, the T/C by setting is: (endpoint: median survival time, dose: 65.0 mg/kg/injection, schedule: Q ##X015 (oral), vehicle: steriod suspending solution) 113 % of control; (endpoint: median survival time, dose: 65.0 mg/kg/injection, schedule: Q## X015 (oral), vehicle: steriod suspending solution) 116 % of control; (endpoint: median survival time, dose: 108.0 mg/kg/injection, schedule: Q01DX009 (sc), vehicle: other) 108 % of control; (endpoint: median survival time, dose: 108.0 mg/kg/injection, schedule: Q01DX013 (sc), vehicle: steriod suspending solution) 115 % of control and 117 % of control and 122 % of control; (endpoint: median survival time, dose: 108.0 mg/kg/injection, schedule: Q01DX Z (sc), vehicle: steriod suspending solution) 115 % of control; (endpoint: median survival time, dose: 108.0 mg/kg/injection, schedule: Q ##X015 (oral), vehicle: steriod suspending solution) 117 % of control. For the same molecule, the T/C was 116 % of control (endpoint: median survival time, dose: 108.0 mg/kg/injection, schedule: Q## X015 (oral), vehicle: steriod suspending solution); 115 % of control (endpoint: median survival time, dose: 180.0 mg/kg/injection, schedule: Q01DX009 (sc), vehicle: other); 166 % of control (endpoint: median survival time, dose: 300.0 mg/kg/injection, schedule: Q01DX Z (sc), vehicle: steriod suspending solution); 166 % of control (endpoint: median survival time, dose: 500.0 mg/kg/injection, schedule: Q01DX013 (sc), vehicle: other); 166 % of control (endpoint: median survival time, dose: 500.0 mg/kg/injection, schedule: Q01DX013 (sc), vehicle: steriod suspending solution); 150 % of control (endpoint: median survival time, dose: 500.0 mg/kg/injection, schedule: Q01DX017 (oral), vehicle: steriod suspending solution). Moreover, the T/C by setting is: (endpoint: median survival time, dose: 500.0 mg/kg/injection, schedule: Q## X015 (oral), vehicle: steriod suspending solution) 150 % of control; (endpoint: median survival time, dose: 833.0 mg/kg/injection, schedule: Q ##X015 (oral), vehicle: steriod suspending solution) 158 % of control; (endpoint: median survival time, dose: 833.0 mg/kg/injection, schedule: Q## X015 (oral), vehicle: steriod suspending solution) 166 % of control.

(Values after PubChem BioAssay AID250 (DTP/NCI, 2004).)
